Holding throughout (assay): DTP human tumour cell line panel, 48 h
In assay [1] the test system is IGROV1 ovarian.
In assay [2] the test system is LXFL 529 NSCLC.
In assay [3] the test system is SNB-78 CNS.
For assay [4], the system named is SN12C renal.
Assay [5] deals with M19-MEL melanoma.
The test system of assay [6] is KM20L2 colon.
The subject of assay [7] is DMS 114 small cell lung.
Assay [8] deals with SR leukemia.
Assay [9] concerns HOP-18 NSCLC.
Assay [10] deals with A498 renal.
The test system of assay [11] is MCF7 breast.
Assay [12] deals with MDA-MB-435.
In assay [13] the test system is PC-3 prostate.
In assay [14] the test system is XF 498 CNS.

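Interpolation was linear, between the two tested concentrations surrounding the appropriate level; five concentrations were tested over 48 hours in 96-well plates. GI50 marks 50% less growth. TGI: concentration producing complete growth inhibition.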 Some results are limits rather than exact numbers.

We go through six compounds from PubChem BioAssay (NCI).

`O=C1CCC(c2ccccc2)=NN1c1nsc2ccccc12`: the TGI in assay [1], in [2], in assay [3], in [4], in [5] and in assay [6] was more than 100 µM each time. The TGI in assay [7], in assay [8] and in assay [9] was more than 100 µM in each case.

With `O=C1CC2(CCC(O)(c3ccc4ccccc4c3)C(C(=O)c3ccc4ccccc4c3)C2)C(=O)c2ccccc2N1` (stereo not given), the TGI in [1], in assay [10], in assay [11], in assay [4], in [12] and in [13] was more than 100 µM throughout. Also, in assay [8], the TGI is more than 100 µM.

On to `COc1cnc2c(c1)C(=O)c1c-2n(CCCN2CCOCC2)c(=O)c2cc(Cl)ccc12`, for which, in assay [11], the GI50 is 0.0959 µM and the TGI was more than 100 µM. Moreover, in assay [8], the GI50 is 0.0797 µM and the TGI was more than 100 µM.

Regarding `COc1cccc(N2C(Cl)C(=O)C2c2c[nH]c3ccccc23)c1` (stereo not given), the TGI in [1], in assay [14], in [2], in assay [4], in [5] and in assay [6] was more than 100 µM each time. For the same compound, the TGI in assay [7] and in assay [8] was more than 100 µM each time.

Turning to `Nc1ncc(-c2ccc3ncnc(Nc4ccc(F)c(Cl)c4)c3c2)cn1`, the GI50 in assay [1] is 0.258 µM; in assay [11], 1.49 µM; in assay [4], 1.58 µM; in assay [12], 2.31 µM; in assay [13], 2.48 µM. The TGI in assay [1] is 2.43 µM; in assay [11], 20.5 µM; in assay [4] it was 4.1 µM; in assay [12], 13.4 µM; in assay [13], 53.6 µM.

In the case of `O=c1oc2cc(O)ccc2c(O)c1C(c1ccccc1)c1c(O)c2ccc(O)cc2oc1=O`, the TGI in [1], in assay [10], in assay [11], in assay [4], in assay [12] and in assay [13] was more than 100 µM in each case. Besides, in assay [8], the concentration for total growth inhibition (TGI) was more than 100 µM.
